The test system of series [1] is Mus musculus. Description: Anticonvulsant activity in ip dosed mouse by MES test. In kind it is functional.
Series [2] in a line: Toxicity in ip dosed mouse. Conditions: in vivo. The class given is organism-based.
Series [3] is described as follows: Acute toxicity in po dosed mouse. The class given is organism-based. Conditions: in vivo.
In series [4] the test system is Mus musculus. Description: Anticonvulsant activity in po dosed albino mouse measured after 60 mins by MES test. The class given is functional.
Series [5] is filed under the species Mus musculus. Description: Anticonvulsant activity in mouse by MES test. In kind it is functional.

SMILES strings stand for the structures.

On to `CCSc1nc(=O)c2ccccc2[nH]1`, for which, in series [1], the Activity was 60%. The compound further had an LD50 in series [2] of 1000 mg/kg.

Consider `O=C(CNc1ccc(Cl)cc1)Nn1c(COc2ccc(Cl)cc2Cl)nc2ccccc2c1=O`, for which, in series [3], the LD50 is > 3000 mg/kg. For the same compound, the PD50 in series [4] turned out to be 200.53 µmol/kg.

As for `Nc1nnc2c3ccccc3nc(-c3ccccc3Br)n12`, the 50% effect level in series [5] (ED50) was put at a dose of 27.4 mg/kg.

In series [1], `c1ccc(CN(Cc2ccccc2)c2nc(N(Cc3ccccc3)Cc3ccccc3)c3ccccc3n2)cc1` came in with an Activity of 50%. Also, the median lethal dose (LD50) in series [2] was 400 mg/kg.

In general, LD50 refers to the dose expected to kill half of the subjects tested. One may read the ED50 as the dose at which the effect has come halfway, by size or by number of responders. A high value points to weaker potency.

The record behind these values is ChEMBL document CHEMBL3259786, “Quinazolines: new horizons in anticonvulsant therapy” (Eur J Med Chem, 2014).
